Experimental data as given in patent US12502386B2, “Nitrogen-containing heterocyclic compound and use thereof” (SHANGHAI SHIJIANG BIOTECHNOLOGY CO., LTD, priority 2022, dated 2025).

Assays:
Con-NCI-H82 cell = assay: CellTiter-Glo cell viability, Con-NCI-H82 cell (empty-vector control); format: cell-based, human; conditions: Homo sapiens, NCI-H82, NCI-H82 transfected with empty virus vector (control), intracellular ATP, read-out: inhibitory effect on Con-NCI-H82 (IC50)
GB-1 = assay: CellTiter-Glo cell viability, tumor cell line GB-1; format: cell-based; conditions: GB-1, 72 h; human brain glioblastoma cell; 3 days of culture; read-out: inhibitory effect on GB-1 (IC50)
Method: (§1) Cell viability was detected using the Promega CellTiter-Glo kit, cell viability was determined by directly measuring intracellular ATP content. In the experiment, the IC50 value of the compounds prepared in the Examples of the present invention on various tumor cell lines was detected.
(§2) Each tumor cell was cultured in relevant medium. After cell passage, the gradient diluted compounds prepared in the Examples of the present invention was added. After 3 days of culture, the relevant IC50 (50% inhibiting concentration) was measured. The name, source and culture conditions of each tumor cell line were as follows:
Cell line GB-1 (JCRB, No. IFO50489) was cultured in 10% fetal bovine serum-containing DMEM medium (+P/S).
(§3) Cell viability was detected using the Promega CellTiter-Glo kit, cell viability was determined by directly measuring intracellular ATP content. In the experiment, the IC50 value of the compounds prepared in the Examples of the present invention on various brain tumor cell lines was detected.

sh-DNMT1 NCI-H82 cell = assay: CellTiter-Glo cell viability, sh-DNMT1 NCI-H82 cell (DNMT1 knocked down); format: cell-based, human; conditions: Homo sapiens, NCI-H82, NCI-H82 with DNMT1 knocked down by shRNA, intracellular ATP, read-out: inhibitory effect on sh-DNMT1 NCI-H82 (IC50)
SW48 = assay: CellTiter-Glo cell viability, tumor cell line SW48; format: cell-based; conditions: SW48, 72 h; human colon adenocarcinoma cell; 3 days of culture; read-out: inhibitory effect on SW48 (IC50)
Method: as §1, §2
Cell line SW48 (ATCC, No. CCL-231) was cultured in 10% fetal bovine serum-containing Leibovitz's L-15 medium (+P/S).

D341 Med = assay: CellTiter-Glo cell viability, brain tumor cell line D341 Med; format: cell-based; conditions: Homo sapiens, 72 h, cerebellar medulloblastoma cell, 3 days of culture, read-out: inhibitory effect on D341 Med (IC50)
Method: as §3, §2
Cell line D341 Med (ATCC, No. HTB-187) was cultured in 20% fetal bovine serum-containing EMEM medium (+P/S).

G-401 = assay: CellTiter-Glo cell viability, tumor cell line G-401; format: cell-based; conditions: G-401, 72 h; human renal carcinoma Wilms cell; 3 days of culture; read-out: inhibitory effect on G-401 (IC50)
Method: as §1, §2
Cell line G-401 (ATCC, No. CRL-1441) was cultured in 10% fetal bovine serum-containing McCoy's 5a medium (+P/S).

NCI-H82 = assay: CellTiter-Glo cell viability, tumor cell line NCI-H82; format: cell-based; conditions: NCI-H82, 72 h; human small cell lung cancer cell; 3 days of culture; read-out: inhibitory effect on NCI-H82 (IC50)
Method: as §1, §2
Cell line NCI-H82 (ATCC, No. HTB-175) was cultured in 10% fetal bovine serum-containing RPMI1640 medium (+P/S).

786-O = assay: CellTiter-Glo cell viability, tumor cell line 786-O; format: cell-based; conditions: Homo sapiens, 786-0, 72 h; clear cell renal cell adenocarcinoma cell; 3 days of culture; read-out: inhibitory effect on 786-O (IC50)
Method: as §1, §2
Cell line 786-0 (ATCC, No. CRL-1932) was cultured in 10% fetal bovine serum-containing RPMI164B medium (+P/S).

ov-NNMT NCI-H82 cell = assay: CellTiter-Glo cell viability, ov-NNMT NCI-H82 cell (NNMT overexpressed); format: cell-based, human; conditions: Homo sapiens, NCI-H82, NCI-H82 overexpressing NNMT protein, intracellular ATP, read-out: inhibitory effect on OV-NNMT NCI-H82 (IC50)
Kelly = assay: CellTiter-Glo cell viability, brain tumor cell line Kelly; format: cell-based; conditions: Homo sapiens, 72 h, brain neuroblastoma cell, 3 days of culture, read-out: inhibitory effect on Kelly (IC50)
Method: as §3, §2
Cell line Kelly (ECACC, No. 92110411) was cultured in 10% fetal bovine serum and 2 mM glutamine-containing RPMI1640 medium.

CFPAC-1 = assay: CellTiter-Glo cell viability, tumor cell line CFPAC-1; format: cell-based; conditions: CFPAC-1, 72 h; human pancreatic cancer cell; 3 days of culture; read-out: inhibitory effect on CFPAC-1 (IC50)
Method: as §1, §2
Cell line CFPAC-1 (ATCC, No. CRL-1918) was cultured in 10% fetal bovine serum-containing IMDM medium (+P/S).

SF-126 = assay: CellTiter-Glo cell viability, tumor cell line SF-126; format: cell-based; conditions: SF-126, 72 h, read-out: inhibitory effect on SF-126 (IC50); human glioblastoma multiforme cell; 3 days of culture
Method: as §1, §2
Cell line SF126 (JCRB, No. IFO50286) was cultured in 10% fetal bovine serum-containing EMEM medium (+P/S).
as §3

NB-1 = assay: CellTiter-Glo cell viability, brain tumor cell line NB-1; format: cell-based; conditions: Homo sapiens, NB1, 72 h; brain neuroblastoma cell; 3 days of culture; read-out: inhibitory effect on NB-1 (IC50)
Method: as §3
(§4) Each tumor cell was cultured in relevant medium. After cell passage, the gradient diluted compounds prepared in the Examples of the present invention was added. After 3 days of culture, the relevant IC50 (50% inhibiting concentration) was measured. The name, source and culture conditions of each tumor cell line were as follows: […]

MDA-MB-453 = assay: CellTiter-Glo cell viability, tumor cell line MDA-MB-453; format: cell-based; conditions: Homo sapiens, MDA-MB-453, 72 h; breast cancer cell; 3 days of culture; read-out: inhibitory effect on MDA-MB-453 (IC50)
Method: as §1, §4

Row | SMILES | IC50 (Con-NCI-H82 cell) [µM] | IC50 (GB-1) [µM] | IC50 (sh-DNMT1 NCI-H82 cell) [µM] | IC50 (SW48) [µM] | IC50 (D341 Med) [µM] | IC50 (G-401) [µM] | IC50 (NCI-H82) [µM] | IC50 (786-O) [µM] | IC50 (ov-NNMT NCI-H82 cell) [µM] | IC50 (Kelly) [µM] | IC50 (CFPAC-1) [µM] | IC50 (SF-126) [µM] | IC50 (NB-1) [µM] | IC50 (MDA-MB-453) [µM]
1 | COc1ccc2c(c1OC)C(C(Cl)(Cl)Cl)N1CCc3cc4c(cc3C1=C2CCCc1ccccc1)OCO4 (centres unmarked) [AB35417] | 0.57 | 14.1 | 3.12 | 0.98 | 0.88 | 1.11 | 0.57 | 10.2 | 1.78 | 1.24 | 9.88 | 12.3 | 2.39 | 1.32
2 | COc1ccc2c(c1OCCCBr)C(C1CCCC1)N1CCc3cc4c(cc3C1=C2)OCO4 (centres unmarked) [AB35430] | 0.85 | 16.9 | 6.32 | 1.56 | 1.32 | 1.32 | 0.85 | 16.1 | 3.18 | 2.01 | 12.1 | 23.4 | 2.55 | 0.96
3 | CCCOc1c(OC)ccc2c1CN1CCc3cc4c(cc3C1=C2)OCO4 [AB35536] | 0.52 | 16.5 | 2.56 | 1.27 | 1.06 | 1.39 | 0.52 | 15.5 | 2.24 | 2.56 | 9.96 | 23.4 | 3.11 | 0.94
4 | COc1ccc2c(c1OCCCF)CN1CCc3cc4c(cc3C1=C2)OCO4 [AB35590] | 1.52 | 22.5 | 4.04 | 2.15 | 2.78 | 2.66 | 1.52 | 13.9 | 4.68 | 3.16 | 15.3 | 17.7 | 1.99 | 1.98
5 | COc1ccc2c(c1OCCCCOc1ccccc1)C(C(Cl)(Cl)Cl)N1CCc3cc4c(cc3C1=C2)OCO4 (centres unmarked) [AB35476] | 0.99 | 15.8 | 4.56 | 1.11 | 0.89 | 1.32 | 0.99 | 12.3 | 3.69 | 1.32 | 14.2 | 18.3 | 2.46 | 0.85
6 | COc1ccc2c(c1OCCCCN)C(C)N1CCc3cc4c(cc3C1=C2)OCO4 (centres unmarked) [AB35429] | 1.89 | 18.4 | 5.04 | 1.46 | 2.02 | 2.02 | 1.89 | 12.5 | 5.32 | 3.16 | 13.4 | 15.3 | 3.45 | 2.43
7 | CCCOc1c(OC)ccc2c1C(C(Cl)(Cl)Cl)N1CCc3cc4c(cc3C1=C2)OCO4 (centres unmarked) [AB35506] | 0.83 | 25.5 | 2.52 | 2.13 | 1.66 | 1.27 | 0.83 | 10.3 | 2.66 | 3.59 | 14.1 | 19.9 | 3.88 | 1.56
8 | COc1ccc2c(c1OCCCc1ccccc1)C(C(Cl)(Cl)Cl)N1CCc3cc4c(cc3C1=C2)OCO4 (centres unmarked) [AB35525] | 0.51 | > 30 | 3.15 | 2.34 | 0.96 | 0.98 | 0.51 | 14 | 2.02 | 3.12 | 16.2 | 19.8 | 1.88 | 1.68
9 | COc1ccc2c(c1OCCCCl)C(C1CCCC1)N1CCc3cc4c(cc3C1=C2)OCO4 (centres unmarked) [AB35434] | 1.68 | 25.7 | 4.98 | 3.05 | 3.15 | 2.64 | 1.68 | 22.2 | 5.12 | 2.46 | > 30 | > 30 | 2.98 | 2.32
10 | COc1ccc2c(c1OC)C(C1CCCC1)N1CCc3cc4c(cc3C1=C2CCCc1ccccc1)OCO4 (centres unmarked) [AB35436] | 1.27 | > 30 | 5.32 | 1.56 | 1.54 | 1.89 | 1.27 | 15.4 | 3.28 | 3.12 | 11.4 | 22.1 | 2.98 | 1.01
